Laboratory results reported in ChEMBL document CHEMBL1201862, “PubChem BioAssay data set” (2004).
Calls of active or inactive are those of the source.

Legend:
[1] = test system: Streptococcus sp. 'group A'; test: Streptococcus pyogenes SK(-)GAS viability under kanamycin – luminescence, BacTiterGlo, confirmation, counter-screen for streptokinase expression inhibitor project, dose response (AID 1900); assay type: functional, organism-based
Streptococcus = test: GAS UMAA2166 growth inhibition – luminescence, BacTiterGlo, counter-screen for streptokinase expression inhibitor project, dose response (AID 1915); assay type: functional, organism-based;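 further: potency for reduction of bacterial viability or growth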
[2] = target: T1, Calpain-2 catalytic subunit (Sus scrofa, UniProt P43367); test: m-calpain protease blockers, concentration series – biochemical, fluorogenic peptide substrate, dose response (AID 1420); assay type: functional
T1 sequence (P43367 whole entry): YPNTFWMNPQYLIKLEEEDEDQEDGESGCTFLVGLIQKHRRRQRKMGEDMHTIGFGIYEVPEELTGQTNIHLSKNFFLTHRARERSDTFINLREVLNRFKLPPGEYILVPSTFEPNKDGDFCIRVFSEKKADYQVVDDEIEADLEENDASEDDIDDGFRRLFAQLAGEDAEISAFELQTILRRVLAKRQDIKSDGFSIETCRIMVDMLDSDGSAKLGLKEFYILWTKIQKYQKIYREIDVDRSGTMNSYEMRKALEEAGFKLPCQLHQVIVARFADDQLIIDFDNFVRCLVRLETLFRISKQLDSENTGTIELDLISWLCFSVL

Streptokinase A = target: T2, Streptokinase A (Streptococcus pyogenes serotype M1, UniProt P10520); test: viability-normalized secreted streptokinase activity reduction – plasminogen activation absorbance, OD405, dose response (AID 1914); assay type: functional, Streptococcus pyogenes M1 GAS;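 further: secreted streptokinase activity via plasminogen activation per viability signal from cell pellet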
T2 sequence (P10520 whole entry): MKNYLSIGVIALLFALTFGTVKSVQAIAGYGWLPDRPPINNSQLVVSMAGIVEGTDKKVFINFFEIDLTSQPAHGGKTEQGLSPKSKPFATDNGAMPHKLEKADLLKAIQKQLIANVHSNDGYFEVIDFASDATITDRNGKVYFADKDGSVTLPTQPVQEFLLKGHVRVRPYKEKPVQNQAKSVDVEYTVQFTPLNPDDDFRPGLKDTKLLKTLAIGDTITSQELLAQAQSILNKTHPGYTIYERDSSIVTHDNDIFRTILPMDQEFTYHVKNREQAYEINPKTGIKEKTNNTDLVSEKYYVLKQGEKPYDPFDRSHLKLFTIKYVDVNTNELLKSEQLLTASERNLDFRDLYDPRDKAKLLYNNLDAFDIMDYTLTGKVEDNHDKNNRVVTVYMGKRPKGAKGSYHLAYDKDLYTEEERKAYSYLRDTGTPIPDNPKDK

[3] = target: T3, Carboxy-terminal domain RNA polymerase II polypeptide A small phosphatase 1 (Homo sapiens, UniProt Q9GZU7); test: CTDSP1 inhibitors, concentration-response, biochemical, absorbance readout, ultra-high-throughput screen actives (AID 540297); assay type: functional
T3 sequence (Q9GZU7 whole entry): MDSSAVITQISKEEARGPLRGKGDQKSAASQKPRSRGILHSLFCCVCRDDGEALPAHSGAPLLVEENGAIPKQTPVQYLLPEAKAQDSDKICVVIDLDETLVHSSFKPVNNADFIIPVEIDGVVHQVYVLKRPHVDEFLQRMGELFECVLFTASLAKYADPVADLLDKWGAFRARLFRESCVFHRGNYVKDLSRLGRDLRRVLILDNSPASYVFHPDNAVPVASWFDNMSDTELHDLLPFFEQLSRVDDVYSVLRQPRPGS

Cytochrome P450 2C9 = Cytochrome P450 2C9 (Homo sapiens, UniProt P11712)
Cytochrome P450 2C9, sequence (P11712 whole entry): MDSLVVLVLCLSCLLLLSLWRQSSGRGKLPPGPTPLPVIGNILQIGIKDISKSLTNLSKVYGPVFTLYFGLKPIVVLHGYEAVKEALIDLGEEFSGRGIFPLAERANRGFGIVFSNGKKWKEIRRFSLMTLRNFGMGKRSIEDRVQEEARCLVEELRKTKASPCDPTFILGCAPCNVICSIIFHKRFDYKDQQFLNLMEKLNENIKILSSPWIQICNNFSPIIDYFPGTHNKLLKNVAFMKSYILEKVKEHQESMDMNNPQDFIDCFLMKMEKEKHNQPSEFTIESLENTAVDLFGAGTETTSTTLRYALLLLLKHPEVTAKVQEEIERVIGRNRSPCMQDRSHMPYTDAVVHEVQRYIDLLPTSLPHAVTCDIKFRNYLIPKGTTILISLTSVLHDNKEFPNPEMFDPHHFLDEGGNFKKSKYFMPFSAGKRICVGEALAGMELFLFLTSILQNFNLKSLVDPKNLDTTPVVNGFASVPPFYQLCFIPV

Cytochrome P450 2C19 = Cytochrome P450 2C19 (Homo sapiens, UniProt P33261); test: Cytochrome panel assay with activity outcomes. Panel member name: p450-cyp2c19 Compounds with AC50 equal or less than 10 uM are considered active; assay type: functional; conditions: read-out: AC50
Cytochrome P450 2C19, sequence (P33261 whole entry): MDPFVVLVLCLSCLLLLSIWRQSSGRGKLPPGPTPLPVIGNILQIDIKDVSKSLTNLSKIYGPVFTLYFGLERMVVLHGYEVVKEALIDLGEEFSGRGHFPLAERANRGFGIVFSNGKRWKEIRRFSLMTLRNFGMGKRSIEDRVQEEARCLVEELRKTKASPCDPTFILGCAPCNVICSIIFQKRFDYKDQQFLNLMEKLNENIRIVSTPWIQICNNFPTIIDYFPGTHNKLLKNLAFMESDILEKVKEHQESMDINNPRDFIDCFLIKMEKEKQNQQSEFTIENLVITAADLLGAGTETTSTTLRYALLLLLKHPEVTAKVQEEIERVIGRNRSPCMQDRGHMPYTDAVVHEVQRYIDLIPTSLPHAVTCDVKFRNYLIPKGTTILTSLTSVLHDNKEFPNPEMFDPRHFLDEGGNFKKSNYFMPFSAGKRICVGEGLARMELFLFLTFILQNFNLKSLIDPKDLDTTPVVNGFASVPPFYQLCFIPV

H9c2 = test: cells; assay type: functional, cell-based; conditions: Rattus norvegicus, H9c2, Myocardium;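 further: confirmatory concentration-response retest of ultra-high-throughput screening hits for modulation of myocardial damage; cell death induced by hydrogen peroxide oxidative stress; compound pretreatment for 60 min then peroxide exposure for 2 h; potency is for protecting the cells against peroxide damage rather than for killing them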
Cytochrome P450 2D6 = Cytochrome P450 2D6 (Homo sapiens, UniProt P10635);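 further: CYP2D6 member of a cytochrome P450 panel assay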
Cytochrome P450 2D6, sequence (P10635 whole entry): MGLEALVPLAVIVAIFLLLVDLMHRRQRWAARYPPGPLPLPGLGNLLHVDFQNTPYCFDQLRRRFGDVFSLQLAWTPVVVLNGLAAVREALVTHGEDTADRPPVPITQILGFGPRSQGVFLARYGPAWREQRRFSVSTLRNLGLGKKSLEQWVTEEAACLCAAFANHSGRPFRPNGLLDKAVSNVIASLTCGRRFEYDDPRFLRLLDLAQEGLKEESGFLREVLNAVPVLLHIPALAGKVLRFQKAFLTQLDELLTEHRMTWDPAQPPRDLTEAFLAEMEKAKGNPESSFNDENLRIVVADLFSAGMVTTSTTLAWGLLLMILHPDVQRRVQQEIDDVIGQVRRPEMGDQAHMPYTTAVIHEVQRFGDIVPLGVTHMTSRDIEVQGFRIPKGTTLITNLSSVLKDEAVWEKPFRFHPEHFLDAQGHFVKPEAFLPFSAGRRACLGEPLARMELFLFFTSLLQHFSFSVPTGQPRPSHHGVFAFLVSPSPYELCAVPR

Protein skinhead-1 = target: T4, Protein skinhead-1 (Caenorhabditis elegans, UniProt P34707); assay type: functional
T4 sequence (P34707 whole entry): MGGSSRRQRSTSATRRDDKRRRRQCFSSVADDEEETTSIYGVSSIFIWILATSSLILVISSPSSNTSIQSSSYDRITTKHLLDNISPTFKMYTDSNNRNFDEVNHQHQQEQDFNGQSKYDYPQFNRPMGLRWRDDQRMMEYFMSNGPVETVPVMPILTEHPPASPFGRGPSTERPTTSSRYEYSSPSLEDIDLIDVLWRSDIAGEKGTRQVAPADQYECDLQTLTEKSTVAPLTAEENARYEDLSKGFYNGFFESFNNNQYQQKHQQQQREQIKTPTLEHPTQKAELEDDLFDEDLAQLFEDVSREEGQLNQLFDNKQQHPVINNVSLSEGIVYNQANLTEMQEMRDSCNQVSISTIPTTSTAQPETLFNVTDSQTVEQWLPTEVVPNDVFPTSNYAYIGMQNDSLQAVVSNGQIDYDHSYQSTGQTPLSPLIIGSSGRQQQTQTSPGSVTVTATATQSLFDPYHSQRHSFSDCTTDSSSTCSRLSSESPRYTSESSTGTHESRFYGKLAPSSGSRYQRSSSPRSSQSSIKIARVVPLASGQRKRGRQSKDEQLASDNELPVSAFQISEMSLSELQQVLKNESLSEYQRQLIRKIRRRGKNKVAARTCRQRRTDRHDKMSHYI

[4] = THP-1 cell cytotoxicity, dose response, cytotoxicity control for non-replicating M. tuberculosis project (AID 489025); assay type: functional
[5] = target: Luciferin 4-monooxygenase (Photinus pyralis, UniProt P08659); test: inhibition of purified Photinus pyralis luciferase – biochemical, luminescence, dose response (AID 1891)
Luciferin 4-monooxygenase, sequence (P08659 whole entry): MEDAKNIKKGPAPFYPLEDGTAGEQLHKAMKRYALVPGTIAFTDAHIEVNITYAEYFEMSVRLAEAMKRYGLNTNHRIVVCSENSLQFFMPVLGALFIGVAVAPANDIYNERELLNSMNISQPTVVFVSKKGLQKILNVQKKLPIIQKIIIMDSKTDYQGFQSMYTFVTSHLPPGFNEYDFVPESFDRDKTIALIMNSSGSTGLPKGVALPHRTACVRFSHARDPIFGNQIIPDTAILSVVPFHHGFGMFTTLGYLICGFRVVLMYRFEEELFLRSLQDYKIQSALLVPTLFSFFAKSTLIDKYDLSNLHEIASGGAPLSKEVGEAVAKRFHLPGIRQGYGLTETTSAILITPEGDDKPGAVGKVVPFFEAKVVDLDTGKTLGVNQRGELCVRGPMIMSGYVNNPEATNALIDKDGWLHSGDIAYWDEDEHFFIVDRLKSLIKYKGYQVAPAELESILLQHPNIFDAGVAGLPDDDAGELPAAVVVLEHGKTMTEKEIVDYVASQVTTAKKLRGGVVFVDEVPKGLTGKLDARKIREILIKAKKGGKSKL

[6] = Luminescence Cell-Based Dose Confirmation HTS to Identify Inhibitors of Platelet Dense Granule Release. [Related pubchem assays: 1663 (Primary HTS), 1678 (Summary of Project)]; assay type: functional
Cytochrome P450 1A2 = target: T5, Cytochrome P450 1A2 (Homo sapiens, UniProt P05177);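 further: PubChem cytochrome P450 panel assay, CYP1A2 panel member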
T5 sequence (P05177 whole entry): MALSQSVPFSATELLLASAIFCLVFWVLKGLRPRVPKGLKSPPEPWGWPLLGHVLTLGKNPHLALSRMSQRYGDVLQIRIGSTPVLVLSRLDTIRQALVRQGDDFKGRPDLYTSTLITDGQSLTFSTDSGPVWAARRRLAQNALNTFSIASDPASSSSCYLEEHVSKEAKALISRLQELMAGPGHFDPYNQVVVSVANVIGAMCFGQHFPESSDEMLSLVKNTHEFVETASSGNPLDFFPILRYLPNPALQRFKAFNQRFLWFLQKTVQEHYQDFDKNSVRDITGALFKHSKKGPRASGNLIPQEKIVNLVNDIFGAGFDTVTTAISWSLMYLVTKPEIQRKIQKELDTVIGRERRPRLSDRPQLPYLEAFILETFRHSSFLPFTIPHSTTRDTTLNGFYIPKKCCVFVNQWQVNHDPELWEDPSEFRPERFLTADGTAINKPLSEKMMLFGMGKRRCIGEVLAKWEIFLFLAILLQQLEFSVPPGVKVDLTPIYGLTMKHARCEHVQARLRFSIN

cells = assay type: functional
Cytochrome P450 3A4 = Cytochrome P450 3A4 (Homo sapiens, UniProt P08684);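 further: CYP3A4 tested as one member of a cytochrome P450 panel screen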
Cytochrome P450 3A4, sequence (P08684 whole entry): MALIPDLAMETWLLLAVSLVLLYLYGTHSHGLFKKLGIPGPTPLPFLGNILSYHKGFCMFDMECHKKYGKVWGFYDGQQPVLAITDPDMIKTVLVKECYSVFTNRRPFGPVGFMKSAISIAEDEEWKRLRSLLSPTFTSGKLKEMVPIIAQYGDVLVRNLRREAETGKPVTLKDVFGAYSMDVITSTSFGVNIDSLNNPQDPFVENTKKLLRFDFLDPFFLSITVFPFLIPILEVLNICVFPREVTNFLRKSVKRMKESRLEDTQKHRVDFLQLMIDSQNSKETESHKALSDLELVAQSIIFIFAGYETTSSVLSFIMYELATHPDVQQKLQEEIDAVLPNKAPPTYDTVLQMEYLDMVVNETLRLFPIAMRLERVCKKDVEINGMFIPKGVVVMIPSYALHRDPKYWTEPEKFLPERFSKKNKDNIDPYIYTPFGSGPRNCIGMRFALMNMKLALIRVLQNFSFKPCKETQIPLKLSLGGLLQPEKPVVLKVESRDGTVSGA

Paired box protein Pax-8 = Paired box protein Pax-8 (Homo sapiens, UniProt Q06710); test: PAX8 transcriptional activity inhibition in RMG-I – RMG-I cells, luciferase, cherry-pick, dose response (AID 687027); assay type: functional, cell-based;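 further: luciferase reporter driven by Pax8 target thyroperoxidase promoter measured by SteadyGlo luminescence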
Paired box protein Pax-8, sequence (Q06710 whole entry): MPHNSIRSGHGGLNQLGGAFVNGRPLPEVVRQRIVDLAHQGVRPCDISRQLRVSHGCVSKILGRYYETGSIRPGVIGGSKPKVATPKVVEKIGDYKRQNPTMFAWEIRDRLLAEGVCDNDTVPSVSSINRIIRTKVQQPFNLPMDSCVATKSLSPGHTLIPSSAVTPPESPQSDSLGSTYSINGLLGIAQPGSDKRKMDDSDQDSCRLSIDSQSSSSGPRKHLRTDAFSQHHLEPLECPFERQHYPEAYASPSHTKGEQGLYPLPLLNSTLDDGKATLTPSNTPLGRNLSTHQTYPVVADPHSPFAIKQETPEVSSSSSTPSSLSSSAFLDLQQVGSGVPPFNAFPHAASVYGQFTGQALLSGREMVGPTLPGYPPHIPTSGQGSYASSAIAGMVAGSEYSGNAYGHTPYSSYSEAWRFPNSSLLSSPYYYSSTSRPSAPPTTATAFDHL

CCOC(=O)c1cnc(-n2nc(C)cc2C)nc1Nc1ccc(OC)cc1
EC50 [1]: 6.33 µM (active) | EC50 (Streptococcus): > 150 µM (not active) | IC50 [2]: < 0.4 µM (not active) | EC50 (Streptokinase A): > 150 µM (not active)

COc1ccc(OC)c([N+](=O)[O-])c1C(N)=O
IC50 [3]: 3.49 µM (active)

CN1CCCN(S(=O)(=O)c2ccc3c(c2)OCCO3)CC1
AC50 (Cytochrome P450 2C9): inconclusive | AC50 (Cytochrome P450 2C19): 25.1 µM (inconclusive)

CC(=O)Nc1ccc(N/C=C2\C(=O)NC(=O)N(Cc3ccco3)C2=O)cc1
IC50 [3]: 9.73 µM (active)

O=C(Nc1cc(=O)c2ccccc2o1)N1CCCCC1
IC50 (H9c2): 22.8 µM (active)

CCn1c(CNC(=O)COc2ccc(C(C)C)cc2)nnc1SCC(=O)Nc1cc(F)ccc1C
IC50 [3]: 16.7 µM (active) | AC50 (Cytochrome P450 2D6): 22.4 µM (inconclusive)

COc1ccccc1Nc1nc(Cl)c(C=O)s1
IC50 [2]: > 50 µM (not active)

O=C(COC(=O)c1ccc(Cl)c(S(=O)(=O)N2CCCCC2)c1)NCc1ccco1
IC50 [3]: 13.8 µM (active)

CN1/C(=C\C(=O)CSc2nnc(NCc3ccccc3)s2)C(C)(C)c2ccccc21
IC50 (Protein skinhead-1): > 100 µM (inactive) | IC50 [2]: 4.01 µM (not active)

CCCCNC(=O)Cc1ccc(C)cc1
CC50 [4]: > 40 µM (active)

CCCCNC(=O)Nc1ccc(Br)cn1
EC50 [5]: > 112 µM (not active) | EC50 [6]: > 112 µM (not active)

CCCn1c(C2CC(=O)N(c3cc(OC)ccc3OC)C2)nc2ccccc21 (centres undefined)
EC50 [5]: > 112 µM (not active) | EC50 [6]: > 112 µM (not active)

O=C(CNC(=O)c1cccs1)NCC(=O)OCc1ccc(Cl)cc1Cl
AC50 (Cytochrome P450 1A2): 10 µM (inconclusive) | AC50 (Cytochrome P450 2C9): inconclusive

Cc1cccc(OCc2nc(C#N)c(NCc3ccc4c(c3)OCO4)o2)c1
IC50 [2]: 6.8 µM (not active)

CC(C)C1OC(NC(=O)Nc2ccc(Cl)c(Cl)c2)=NC1=O (centres undefined)
EC50 [1]: 2.51 µM (active) | EC50 (Streptococcus): 28.7 µM (active) | CC50 [4]: > 40 µM (active) | IC50 (cells): 18.9 µM (active) | EC50 (Streptokinase A): > 150 µM (not active)

COCC(C)n1c(C)cc(C(=O)COC(=O)c2c(NC(C)=O)sc(C)c2C)c1C (centres undefined)
IC50 [3]: 9.88 µM (active)

COC(=O)c1cc(Cl)c(NC(=O)/C=C/c2ccc(OC)c(OC)c2)cc1OC
IC50 (H9c2): 22.1 µM (active)

Cc1cccc(CNc2ccnc(-c3ccccc3CN(C)C)n2)c1
AC50 (Cytochrome P450 3A4): 3.98 µM (inconclusive) | AC50 (Cytochrome P450 2C9): inconclusive

CCc1cccc2c(C=C(C#N)C#N)cn(CC(=O)N3CCCC3)c12
AC50 (Cytochrome P450 2C9): inconclusive

O=C(Nc1ccccc1Cl)c1ccccc1Cl
AC50 (Cytochrome P450 2C9): inconclusive

Cc1cc(C)n(C(=O)c2cc3ccccc3c(=O)o2)n1
AC50 (Cytochrome P450 2C9): inconclusive

COc1ccccc1OP(=O)(Nc1cccnc1)Oc1ccccc1OC
IC50 (H9c2): > 79 µM (inactive)

Cc1cc2ncn(-c3ncnc4sc5c(c34)CCC(C)C5)c2cc1C (centres undefined)
IC50 [2]: 19.2 µM (not active)

c1ccc(Oc2ccc(-c3ccnc4ncnn34)cc2)cc1
IC50 [2]: 11.5 µM (active)

Cc1ccc(NC(=O)CN(C)C(=O)c2cc(-c3ccco3)nc3ccccc23)cc1
IC50 [3]: 3.88 µM (active)

Cc1ccc(C(=O)O)cc1-c1ccc(C=C2C(=O)c3ccccc3C2=O)o1
IC50 [3]: 13.7 µM (active)

COn1c(=O)c(=O)n(O)c2ccccc21
EC50 [5]: > 112 µM (not active) | EC50 [6]: > 112 µM (not active)

Cc1ccc(S(=O)(=O)N2CCN(C(=O)COC(=O)CCOc3ccccc3C)CC2)c(C)c1
IC50 [3]: 10.7 µM (active)

Cc1nn(-c2ccccc2)c(Cl)c1C(=O)NNC(=O)c1ccccc1O
IC50 (H9c2): 13 µM (active)

Cc1cc2ccccn2c1C(=O)c1ccc(N/N=C/c2ccc(C(=O)O)cc2)c([N+](=O)[O-])c1
IC50 [3]: 1.02 µM (active)

Cc1ccc(NC(=O)c2cccc(N(C)C)c2)cc1NC(=O)c1ccc(O)cc1
AC50 (Cytochrome P450 2C9): inconclusive

CC(=O)c1ccc(-c2cnc3c(NC=O)cc(-c4cccc(NS(C)(=O)=O)c4)cn23)cc1
IC50 (H9c2): > 79 µM (inactive)

N#Cc1ccc(OCC(=O)Nc2nc(-c3ccccn3)cs2)cc1
IC50 (H9c2): > 79 µM (inactive)

Cc1cc(CNC(=O)COC(=O)Cn2[nH]c(=O)c3ccccc3c2=O)cc(C)c1O
IC50 (H9c2): > 79 µM (inactive)

CC1(C(=O)Nc2cccc(OC(F)(F)F)c2)Cc2c(-c3ccc(C(N)=O)cc3)ccnc2O1 (centres undefined)
IC50 (H9c2): > 79 µM (inactive)

C/C(=N\NC(=O)COc1ccc(C)cc1Br)c1cc([N+](=O)[O-])cs1
CC50 [4]: > 40 µM (active) | IC50 (cells): 34.1 µM (active)

C[C@H](CO)N1C[C@H](C)[C@H](CN(C)Cc2ccc(Cl)c(Cl)c2)OCCCC[C@H](C)Oc2ccc(NC(=O)Nc3ccccc3)cc2C1=O
AC50 (Paired box protein Pax-8): 11.9 µM (active)

C[C@H]1CCCCO[C@@H](CN(C)S(=O)(=O)c2cccs2)[C@@H](C)CN([C@@H](C)CO)C(=O)c2cc(NC(=O)NC3CCCCC3)ccc2O1
AC50 (Paired box protein Pax-8): 4.79 µM (active)
